The results in this text go back to patent US9926282B2, “Phthalazinones and isoquinolinones as rock inhibitors” (BRISTOL-MYERS SQUIBB COMPANY, priority 2013, dated 2018).

What is called IC50 is the midpoint of a concentration-inhibition curve.

One assay has as its target ROCK2 (Homo sapiens (Human), UniProt O75116). Briefly: ROCK assay (LABCHIP peptide phosphorylation), ROCK2. The settings on record: 5 μM ATP, 1.5 μM peptide substrate. The format is biochemical.
Another assay has as its target ROCK1 (Homo sapiens (Human), UniProt Q13464). As to the kind of experiment: ROCK assay (LABCHIP peptide phosphorylation), ROCK1. It is filed as biochemical. The note with it: 5 μM ATP, 1.5 μM peptide substrate; read-out: ROCK1 IC50.

Structures are written as SMILES.

Sequence of ROCK2 (O75116 whole entry, species assumed): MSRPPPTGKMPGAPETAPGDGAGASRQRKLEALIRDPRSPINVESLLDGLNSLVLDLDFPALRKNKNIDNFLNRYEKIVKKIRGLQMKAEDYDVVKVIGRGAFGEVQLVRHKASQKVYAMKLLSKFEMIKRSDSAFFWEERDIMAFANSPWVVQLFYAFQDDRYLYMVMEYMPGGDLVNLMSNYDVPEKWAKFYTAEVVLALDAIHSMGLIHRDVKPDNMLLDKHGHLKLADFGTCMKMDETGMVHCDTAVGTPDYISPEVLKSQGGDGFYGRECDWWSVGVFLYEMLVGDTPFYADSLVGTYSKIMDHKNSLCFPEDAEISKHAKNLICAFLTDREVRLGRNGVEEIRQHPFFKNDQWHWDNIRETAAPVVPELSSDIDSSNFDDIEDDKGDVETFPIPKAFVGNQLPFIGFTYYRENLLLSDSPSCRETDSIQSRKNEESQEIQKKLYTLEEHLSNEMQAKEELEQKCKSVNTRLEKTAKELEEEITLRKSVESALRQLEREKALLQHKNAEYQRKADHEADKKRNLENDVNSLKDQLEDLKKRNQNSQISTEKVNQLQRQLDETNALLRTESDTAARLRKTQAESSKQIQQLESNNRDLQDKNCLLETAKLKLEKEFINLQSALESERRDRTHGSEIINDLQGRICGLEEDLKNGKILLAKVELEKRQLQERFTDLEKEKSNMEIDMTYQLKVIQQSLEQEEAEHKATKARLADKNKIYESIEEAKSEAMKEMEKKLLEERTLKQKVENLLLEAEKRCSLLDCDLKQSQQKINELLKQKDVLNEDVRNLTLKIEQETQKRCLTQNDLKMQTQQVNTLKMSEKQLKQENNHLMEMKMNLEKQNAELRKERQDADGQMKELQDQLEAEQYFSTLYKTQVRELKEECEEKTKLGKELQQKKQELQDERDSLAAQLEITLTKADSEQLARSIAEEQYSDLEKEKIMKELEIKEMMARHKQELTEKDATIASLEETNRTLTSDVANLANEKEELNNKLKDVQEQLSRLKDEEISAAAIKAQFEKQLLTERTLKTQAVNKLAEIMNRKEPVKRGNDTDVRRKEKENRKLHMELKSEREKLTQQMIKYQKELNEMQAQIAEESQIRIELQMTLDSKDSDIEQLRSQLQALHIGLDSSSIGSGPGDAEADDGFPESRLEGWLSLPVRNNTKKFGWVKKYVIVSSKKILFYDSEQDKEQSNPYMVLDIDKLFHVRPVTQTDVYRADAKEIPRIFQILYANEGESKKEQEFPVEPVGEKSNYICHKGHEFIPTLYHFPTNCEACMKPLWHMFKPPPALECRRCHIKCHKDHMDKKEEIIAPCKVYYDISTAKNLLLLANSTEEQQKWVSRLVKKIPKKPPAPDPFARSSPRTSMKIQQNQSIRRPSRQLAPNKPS
Sequence of ROCK1 (Q13464 whole entry, species assumed): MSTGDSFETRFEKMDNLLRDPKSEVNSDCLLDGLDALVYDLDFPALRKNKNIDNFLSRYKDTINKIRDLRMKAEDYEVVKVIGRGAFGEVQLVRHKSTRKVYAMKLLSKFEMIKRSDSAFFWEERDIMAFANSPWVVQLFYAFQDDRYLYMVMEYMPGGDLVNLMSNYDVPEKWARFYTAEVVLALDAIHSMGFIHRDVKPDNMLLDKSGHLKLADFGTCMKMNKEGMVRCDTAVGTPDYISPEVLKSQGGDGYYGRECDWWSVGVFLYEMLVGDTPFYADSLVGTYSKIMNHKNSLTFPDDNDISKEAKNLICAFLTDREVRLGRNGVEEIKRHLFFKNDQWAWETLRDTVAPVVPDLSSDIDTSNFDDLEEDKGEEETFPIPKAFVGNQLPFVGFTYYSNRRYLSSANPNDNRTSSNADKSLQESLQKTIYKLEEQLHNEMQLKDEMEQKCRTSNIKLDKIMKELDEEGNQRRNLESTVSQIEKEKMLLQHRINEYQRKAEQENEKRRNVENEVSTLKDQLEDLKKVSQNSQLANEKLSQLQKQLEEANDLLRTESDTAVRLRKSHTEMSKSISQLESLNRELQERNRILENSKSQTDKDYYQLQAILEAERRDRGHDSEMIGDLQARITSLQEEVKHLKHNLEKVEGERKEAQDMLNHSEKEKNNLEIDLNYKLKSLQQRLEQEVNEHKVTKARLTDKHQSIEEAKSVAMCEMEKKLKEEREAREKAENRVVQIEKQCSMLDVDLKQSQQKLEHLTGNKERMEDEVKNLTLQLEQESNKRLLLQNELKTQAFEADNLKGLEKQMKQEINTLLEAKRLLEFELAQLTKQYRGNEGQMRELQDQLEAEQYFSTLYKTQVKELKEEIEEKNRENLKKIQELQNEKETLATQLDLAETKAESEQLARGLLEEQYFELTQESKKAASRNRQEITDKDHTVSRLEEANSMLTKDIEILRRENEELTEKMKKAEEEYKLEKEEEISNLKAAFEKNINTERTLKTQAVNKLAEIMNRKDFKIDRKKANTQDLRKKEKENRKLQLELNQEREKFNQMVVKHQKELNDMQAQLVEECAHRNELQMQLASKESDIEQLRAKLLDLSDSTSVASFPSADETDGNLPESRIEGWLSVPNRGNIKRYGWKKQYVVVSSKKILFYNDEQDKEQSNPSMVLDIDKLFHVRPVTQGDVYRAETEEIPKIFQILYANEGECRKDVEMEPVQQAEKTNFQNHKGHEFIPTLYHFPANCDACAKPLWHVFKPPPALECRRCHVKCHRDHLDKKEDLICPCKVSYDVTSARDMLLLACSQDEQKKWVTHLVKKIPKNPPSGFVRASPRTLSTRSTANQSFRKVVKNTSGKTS

As to `O=C(Nc1ccc(-c2n[nH]c(=O)c3ccccc23)cc1)c1nn(CC2CCOC2)c2cc(F)ccc12` (stereo not drawn) [Example 174, 6-fluoro-N-[4-(4-oxo-3,4-dihydrophthalazin-1-yl)phenyl]-1-(oxolan-3-ylmethyl)-1H-indazole-3-carboxamide], the IC50 at ROCK2 and on ROCK1 was 0.1 to 100 nM each time.

Consider `COc1cc(-c2n[nH]c(=O)c3ccccc23)ccc1NC(=O)c1nn(CC(C)(C)O)c2ccccc12` [Example 357, 1-(2-Hydroxy-2-methylpropyl)-N-(2-methoxy-4-(4-oxo-3,4-dihydrophthalazin-1-yl)phenyl)-1H-indazole-3-carboxamide], for which the IC50 at ROCK2 lay in the range of 101 to 1000 nM; on ROCK1, 1000 to 50000 nM.

For the compound `CCc1nc2ncccn2c1C(=O)Nc1ccc(-c2n[nH]c(=O)c3ccccc23)cc1` [Example 140, 2-ethyl-N-[4-(4-oxo-3,4-dihydrophthalazin-1-yl)phenyl]imidazo[1,2-a]pyrimidine-3-carboxamide], the 50% inhibitory concentration (IC50) against ROCK2 and at ROCK1 was 0.1 to 100 nM each time.

Take `Cc1nnc(NC(=O)Cc2ccc(-c3n[nH]c(=O)c4ccccc34)cc2)s1` [Example 31, N-(5-methyl-1,3,4-thiadiazol-2-yl)-2-[4-(4-oxo-3,4-dihydrophthalazin-1-yl)phenyl]acetamide]: the IC50 was in the range of 0.1 to 100 nM at ROCK2 and 1000 to 50000 nM on ROCK1.

`O=C(Nc1ccc(-c2n[nH]c(=O)c3ccccc23)cc1)C1Cc2ccccc2C1` [Example 44, N-(4-(4-Oxo-3,4-dihydrophthalazin-1-yl)phenyl)-2,3-dihydro-1H-indene-2-carboxamide]: the values for the IC50 against ROCK2 and on ROCK1 were 0.1 to 100 nM and 1000 to 50000 nM, respectively.

For the compound `Cn1nc(C(F)(F)F)cc1C(=O)Nc1ccc(-c2n[nH]c(=O)c3ccccc23)cc1` [Example 408, 1-Methyl-N-(4-(4-oxo-3,4-dihydrophthalazin-1-yl)phenyl)-3-(trifluoromethyl)-1H-pyrazole-5-carboxamide], the IC50 fell in the range of 0.1 to 100 nM against ROCK2 and 101 to 1000 nM at ROCK1.

With `COc1cccc2cc(C(=O)Nc3ccc(-c4n[nH]c(=O)c5ccccc45)c(C)c3)[nH]c12` [Example 309, 7-methoxy-N-[3-methyl-4-(4-oxo-3,4-dihydrophthalazin-1-yl)phenyl]-1H-indole-2-carboxamide], the IC50 at ROCK2 and on ROCK1 was 0.1 to 100 nM each time.

For the compound `O=C(Nc1ccc(-c2n[nH]c(=O)c3ccccc23)cc1)c1cnn(CC(O)(C(F)(F)F)C(F)(F)F)c1` [Example 380, N-(4-(4-Oxo-3,4-dihydrophthalazin-1-yl)phenyl)-1-(3,3,3-trifluoro-2-hydroxy-2-(trifluoromethyl)propyl)-1H-pyrazole-4-carboxamide], the IC50 fell in the range of 0.1 to 100 nM at ROCK2 and 101 to 1000 nM on ROCK1.

In the case of `O=C(Nc1ccc(-c2n[nH]c(=O)c3ccccc23)cc1)c1nn(CC2CCN(C(=O)OCC(F)(F)F)CC2)c2ccccc12` [Example 351, 2,2,2-Trifluoroethyl 4-[(3-{[4-(4-oxo-3,4-dihydrophthalazin-1-yl)phenyl]carbamoyl}-1H-indazol-1-yl)methyl]piperidine-1-carboxylate], the half-maximal inhibitory concentration (IC50) against ROCK2 and at ROCK1 was 0.1 to 100 nM throughout.

As for `CC1(Cn2nc(C(=O)Nc3ccc(-c4n[nH]c(=O)c5ccccc45)c(Cl)c3)c3ccccc32)COC1` [Example 320, N-[3-chloro-4-(4-oxo-3,4-dihydrophthalazin-1-yl)phenyl]-1-[(3-methyloxetan-3-yl)methyl]-1H-indazole-3-carboxamide], the IC50 against ROCK2 and on ROCK1 was 0.1 to 100 nM in each case.

Turning to `CN(C)CCOc1ccc2c(c1)N(C(=O)Cc1ccc(-c3n[nH]c(=O)c4ccccc34)cc1)CC2` [Example 279, 4-[4-(2-{6-[2-(dimethylamino)ethoxy]-2,3-dihydro-1H-indol-1-yl}-2-oxoethyl)phenyl]-1,2-dihydrophthalazin-1-one], the half-inhibitory concentration (IC50) against ROCK2 lay in the range of 0.1 to 100 nM; at ROCK1, 101 to 1000 nM.

In the case of `O=c1[nH]nc(-c2ccc(Nc3ncc4ccccc4n3)cc2)c2ccccc12` [Example 78, 4-{4-[(Quinazolin-2-yl)amino]phenyl}-1,2-dihydrophthalazin-1-one], the IC50 on ROCK2 was 0.1 to 100 nM; at ROCK1, 101 to 1000 nM.
